{
  "source": "patent US10568854B2",
  "about": "“Compositions and methods for treating kabuki syndrome and related disorders” (THE JOHNS HOPKINS UNIVERSITY, priority 2014, dated 2020)",
  "key": {"[1]": {"system": "DCX positive cells in the GCL", "experiment": "DCX (doublecortin) expression in the GCL, neurogenesis (AR-42 treated mice)", "assay_type": "in vivo, mouse", "text": "Animals: Kmt2d^+/βGeo mice, also named Mll2Gt^(RRt024)Byg, were acquired from Bay Genomics (University of California). All experimental mice were on a mixed C57BL/6J and 129/SvEv background. Expected Mendelian ratios were observed when heterozygous animals were bred to wild-type. In heterozygous crosses, however, there was uniform embryonic lethality of homozygotes by ED12, the earliest developmental stage assayed. For treatment with AR-42 mice were orally gavaged daily with drug (Selleck Chemicals, Houston, Tex.) solubilized in vehicle (0.5% methylcellulose, 0.1% Tween-80, water) or with vehicle alone. Drug delivery information was kindly provided by Drs. Chen and Kulp from Ohio State University (Huang et al. (2011) Mol. Pharmacol. 79:197-20619). Drug was administered for 14 days and mice were sacrificed on day 15. Morris water maze testing was initiated at day 7 and a dose of 10 mg/kg/day was used for these studies. For quantification of DCX positive cells, doses of 0, 5, 10 and 25 mg/kg/day were used. Genotyping was performed using primers B-GeoF-([…]; SEQ ID NO: 1) and B-GeoR-([…]; SEQ ID NO: 2) that are specific for the targeted allele and TcrdF-([…]; SEQ ID NO: 3) and TcrdR-([…]; SEQ ID NO: 4) that control for sufficient DNA concentration. Real-time PCR using the same primers allows discrimination between the heterozygous and homozygous state for the targeted allele. Maxillary protrusion was evaluated by ten investigators blinded to genotype and they were asked to rate maxillary protrusion on radiographs as either large (2) or small (1). […] All experiments were performed using mouse protocols approved by the Animal Care and Use Committee of Johns Hopkins University School of Medicine. The mouse protocols used for this study are in accordance with the guidelines used by the NIH for mouse care and handling.\nImmunofluorescence: Every 6th brain section was selected and then blocked with 5% Bovine Serum Albumin (BSA) at room temperature followed by incubation with primary antibodies overnight at 4° C. Secondary antibodies were then applied for 1 hour at room temperature, after which sections were mounted onto microscope slides with Vectamount with DAPI (Vector Laboratories, Burlingame, Calif.). Primary antibodies included Doublecortin (DCX) (SC-8066, Santa Cruz Biotechnology, Dallas, Tex., 1:200 goat), trimethylated H3K4 (9727L, Cell Signaling Technology, Beverly, Mass., 1:500 rabbit), and Kmt2d H-300 (SC-292359, Santa Cruz Biotechnology, Dallas, Tex., 1:500 rabbit). Non-specific binding was not observed when sections were sequentially exposed to serum (or IgG when appropriate) from the same species as the primary antibody for each experiment (i.e. rabbit for KMT2D and H3K4me3 and goat for doublecortin), followed by the secondary antibody used for KMT2D and H3K4me3 (anti-rabbit) or doublecortin (anti-goat, FIG. 27).\nGCL and doublecortin area: The area of both the GCL and DCX+ cells was measured using the NS elements 2.0 software (Nikon, Tokyo, JPN). Normalized DCX area was calculated by measuring the DCX+ area of the GCL and setting the baseline (Kmt2d^+/+) fraction to 1. A Student t-test with significance value set at P<0.05 was used for comparison of DCX+ area referenced to GCL area between genotypes and treatment arms."}, "[2]": {"system": "Klf10 expression", "experiment": "Real-time PCR of Kmt2d target gene Klf10 in spleen cells", "assay_type": "in vivo, mouse", "conditions": "Kmt2d^+/βGeo mice", "method": "Real time PCR: Real-time PCR was performed using Kmt2d-specific probes for exons 20 and 52 (Mm_02600438 and Mm_01717664, respectively) from TaqMan® Gene Expression Assays (Life Technologies, Carlsbad, Calif.). For a comparison of transfection efficiencies for indicator constructs in transient transfection studies, real-time PCR was performed using SYBR Green Real-Time PCR Master Mix (Life Technologies, Carlsbad, Calif.) and primers IND-F-([…]; SEQ ID NO: 5) and IND-R-([…]; SEQ ID NO: 6) that are specific for the H3K4 methylation indicator. For expression analysis for KMT2D target gene KLF10, real-time PCR was performed using Klf10-specific expression assay (Mm00449812_m1) from TaqMan® Gene Expression Assays (Life Technologies, Carlsbad, Calif.)."}, "[3]": {"system": "Kmt2d^+/βGeo mice (mouse model of Kabuki syndrome)", "experiment": "Morris water maze (Example 1)", "assay_type": "in vivo", "conditions": "10 mg/kg/day", "text": "Animals: Kmt2d^+/βGeo mice, also named Mll2Gt^(RRt024)Byg, were acquired from Bay Genomics (University of California). All experimental mice were on a mixed C57BL/6J and 129/SvEv background. Expected Mendelian ratios were observed when heterozygous animals were bred to wild-type. In heterozygous crosses, however, there was uniform embryonic lethality of homozygotes by ED12, the earliest developmental stage assayed. For treatment with AR-42 mice were orally gavaged daily with drug (Selleck Chemicals, Houston, Tex.) solubilized in vehicle (0.5% methylcellulose, 0.1% Tween-80, water) or with vehicle alone. Drug delivery information was kindly provided by Drs. […] For quantification of DCX positive cells, doses of 0, 5, 10 and 25 mg/kg/day were used. […] Maxillary protrusion was evaluated by ten investigators blinded to genotype and they were asked to rate maxillary protrusion on radiographs as either large (2) or small (1). […]\nMorris water maze: Mice were placed in a 1.1 meter diameter tank filled with room temperature water dyed with non-toxic white paint. […] Latency to reach the platform was measured during each trial. […] Average number of crossings of the platform's previous location was recorded. […] For all training and probe testing, data was recorded both manually and electronically with ANY-maze software (San Diego Instruments, San Diego, Calif.) when applicable. […]"}, "[4]": {"system": "H3K4 trimethylation and histone acetylation", "conditions": "cited from earlier work"}},
  "note": "Entries after “also recorded” stand apart in the source; their conditions may differ.",
  "data": [
    {"compound": "CC(C)[C@H](C(=O)Nc1ccc(C(=O)NO)cc1)c1ccccc1", "note": "[AR-42, (S)—N-hydroxy-4-(3-methyl-2-phenylbutanamido)benzamide]", "values": [
      {"measurement": "DCX expression in the GCL", "setting": "[1]; 10 mg/kg/day, older mice (5-6 months), Kmt2d^+/βGeo", "result": "improved"},
      {"measurement": "DCX expression in the GCL", "setting": "[1]; 25 mg/kg/day, Kmt2d^+/+ animals", "result": "reduced DCX expression"},
      {"measurement": "DCX expression in the GCL", "setting": "[1]; 25 mg/kg/day, Kmt2d^+/βGeo mice", "result": "did not improve DCX expression"},
      {"measurement": "DCX expression in the GCL", "setting": "[1]; 25 mg/kg/day, young (1-2 month-old) and old (5-6 month-old), both genotypes", "result": "decreased DCX expression"},
      {"measurement": "neurogenesis (normalized DCX expression)", "setting": "[1]; 1-2 month old Kmt2d^+/βGeo mice, doses 0, 5, 10 mg/kg/day", "result": "dose-dependent increase in neurogenesis"},
      {"measurement": "DCX expression in the GCL", "setting": "[1]; 5 and 10 mg/kg/day, Kmt2d^+/+ or Kmt2d^+/βGeo, both age groups", "result": "preservation or restoration of DCX expression"},
      {"measurement": "Klf10 expression in spleen cells", "setting": "[2]", "result": "normalization of expression of Klf10; also recorded: normalized"},
      {"measurement": "frequency of platform crossing during probe trial", "setting": "[3]", "result": "improved performance for both genotypes; also recorded: normalized"},
      {"measurement": "escape latency during training, with versus without drug", "setting": "[3]; Kmt2d^+/βGeo animals", "result": "No significant difference is observed"},
      {"measurement": "relative effect on H3K4me3", "setting": "[4]; AR-42 versus MS275, Huang et al. (2011)", "result": "strongest effect on H3K4me3"},
      {"measurement": "effect on H3K4 trimethylation and histone acetylation", "setting": "[4]; Huang et al. (2011)", "result": "increase H3K4 trimethylation and histone acetylation"}
    ]}
  ]
}
